The subject of this test is asthma-induced BALB/c mice (ovalbumin). The test is described as follows: Ovalbumin-induced asthma in BALB/c mice: white blood cell, eosinophil and IgE measurement. The class given is in vivo. The settings on record: asthma-induced female BALB/c mice; injected twice a week for 4 weeks; mean of 3 mice; mouse blood. Here is the method:
Ovalbumin was administered to BALB/c mice to induce asthma. The total white blood cell (WBC) count, eosinophil count, and […] in bronchoalveolar lavage fluid (BALF) were measured.
As experimental animals, BALB/c mice (supplier: Samtako Korea), which have been widely used in asthma tests, were used. Female BALB/c mice were used and were 6 weeks old at the time of acquisition and 7 weeks old at the time of the experiment. After acquisition, the mice were acclimatized in an animal test room for 6 days, and observed at least once a day. During the acclimatization period, the mice were distinguished by skin mark using a red oil magic pen. During the administration and observation period, the mice were distinguished by skin mark using a black oil magic pen. An individual identification card was attached to a breeding cage. The mice were housed in a breeding area under the condition of a temperature of 23±3° C., a relative humidity of 55±15%, a ventilation frequency of 10 to 20 times/hr, an illumination time of 12 hours, and an illuminance of 150 to 300 Lux. During the period of acclimatization and administration, at least four mice were housed in each polycarbonate breeding cage containing an appropriate amount of rug. During the acclimatization period, mice determined to be healthy were weighed and ranked according to weight. The mice were distributed into groups so that the mean weights of each group were equal.
As an asthma inducer, refrigerated ovalbumin (OVA) (catalog No.: A5503, supplier: Sigma Aldrich, Louis, Missouri, USA) was used. As an adjuvant, refrigerated aluminum hydroxide (Alum) (catalog No.: 77161, supplier: Thermo Fisher Scientific Inc, Waltham, Massachussets, USA) was used. […]
After 4 weeks, the measurement of the white blood cell (WBC) count, eosinophil count, and IgE was performed using mouse blood. The mean values thereof were calculated, and the results are illustrated in Table 3 below.

This note sets out measurements from patent US11883458B2, “Herb medicine composition for alleviating or treating asthma, and oriental pharmacopuncture solution containing same and injection containing same” (priority 2019, dated 2024).

For the compound `C[C@@H]1C[C@H]2[C@@H]3CCC4=CC(=O)C=C[C@]4(C)[C@@]3(F)[C@@H](O)C[C@]2(C)[C@@]1(O)C(=O)CO` [Positive control, dexamethasone], the Eosinophil count is 1.41 X10^2 cells/μl, the IgE was determined as 23.45 µg/mL and the WBC count is on record as 39.83 X10^3 cells/μl.
